From PubChem BioAssay (NCI)
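Each compound was tested at five concentrations against cells in 96-well plates for 48 hours. Definition used: TGI = concentration required for complete inhibition of growth.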

Tests used:
Assay in all cases: NCI tumour cell line growth inhibition, 48 h
[1] = test system: SN12C renal
[2] = test system: A549 NSCLC
[3] = test system: MALME-3M melanoma
[4] = test system: KM12 colon
[5] = test system: UACC-62 melanoma
[6] = test system: CCRF-CEM leukemia
[7] = test system: SK-MEL-2 melanoma
[8] = test system: HCC-2998 colon
[9] = test system: NCI-H460 lung
[10] = test system: IGROV1 ovarian
[11] = test system: HOP-92 NSCLC
[12] = test system: RPMI-8226 leukemia
[13] = test system: SF-539 CNS
[14] = test system: DLD-1 colon
[15] = test system: HCT-116 colon
[16] = test system: COLO 205 colon
[17] = test system: NCI-H522 lung
[18] = test system: KM20L2 colon
[19] = test system: SW-620 colon
[20] = test system: DMS 273 small cell lung
[21] = test system: ACHN renal
[22] = test system: EKVX NSCLC
[23] = test system: K-562 leukemia
[24] = test system: HL-60(TB) leukemia
[25] = test system: OVCAR-5 ovarian
[26] = test system: SF-295 CNS
[27] = test system: LXFL 529 NSCLC
[28] = test system: UO-31 renal
[29] = test system: SR leukemia
[30] = test system: SF-268 CNS
[31] = test system: SK-OV-3 ovarian
[32] = test system: M19-MEL melanoma
[33] = test system: UACC-257 melanoma
[34] = test system: SNB-19 CNS
[35] = test system: MOLT-4 leukemia
[36] = test system: TK-10 renal
[37] = test system: U251 CNS
[38] = test system: NCI-H23 lung
[39] = test system: RXF 393 renal
[40] = test system: SK-MEL-28 melanoma
[41] = test system: SNB-78 CNS
[42] = test system: LOX IMVI melanoma
[43] = test system: HOP-18 NSCLC
[44] = test system: OVCAR-8 ovarian
[45] = test system: HOP-62 NSCLC
[46] = test system: M14 melanoma
[47] = test system: T-47D breast
[48] = test system: NCI/ADR-RES ovarian
[49] = test system: HCT-15 colon
[50] = test system: PC-3 prostate
[51] = test system: MDA-N
[52] = test system: NCI-H226 lung
[53] = test system: MCF7 breast
[54] = test system: SK-MEL-5 melanoma
[55] = test system: OVCAR-3 ovarian
[56] = test system: BT-549 breast
[57] = test system: MDA-MB-435
[58] = test system: 786-0 renal
[59] = test system: MDA-MB-231 breast
[60] = test system: DU-145 prostate
[61] = test system: HS 578T breast
[62] = test system: HT29 colon
[63] = test system: A498 renal
[64] = test system: SNB-75 CNS
[65] = test system: CAKI-1 renal
[66] = test system: OVCAR-4 ovarian

Measured: TGI

CO[C@H]1ON=C(c2c(C)cc(C)cc2C)[C@@H]1C1(c2ccccc2)ON=C(c2c(C)cc(C)cc2C)O1 (stereo partly drawn)
not listed: [45] | [46] | [47] | [48] | [49] | [50] | [51] | [52] | [53] | [54] | [55] | [56] | [57] | [58] | [59] | [60] | [61] | [62] | [63] | [64] | [65] | [66]
> 100 µM: all other assays above

CC1=CC(=O)CC(C)(C)C1(O)/C=C/C(C)=C/C(=O)O (stereo not drawn)
not listed: [14] | [18] | [20] | [27] | [32] | [41] | [43]
> 100 µM: all other assays above
